Data published in patent publication US7005430B2, “Fused purine derivatives” (Kyowa Hakko Kogyo Co., Ltd., priority 1999, dated 2006).
Where a name gives a salt, the structure may show the parent alone.

How the values were obtained:
[1] = system: MIN6 cell; experiment: Insulin secretion promoting activity for cultured β cells (MIN6); format: cell-based; conditions: for secretion promoting action at a low glucose concentration (in words): MIN6 cells, glucose at a low concentration (5 mmol/L)
Experimental: Culture of the MIN6 cells above and insulin secretion test utilizing the MIN6 cells were performed according to the methods described in Diabetologia, vol. 36, pp. 1139–1145, 1993. The effect of a compound on the insulin secretion in the presence of 14.5 mmol/L glucose was determined by measuring insulin amounts in cell culture supernatants collected as follows. MIN6 cells cultured on a 24-well plate were washed twice by using 1 mL of Buffer A (119 mmol/L sodium chloride, 4.74 mmol/L potassium chloride, 2.54 mmol/L calcium chloride, 1.19 mmol/L magnesium sulfate, 1.19 mmol/L potassium dihydrogenphosphate, 10 mmol/L 2-[4-(2-hydroxyethyl)-1-piperazinyl]ethanesulfonic acid, 0.1% bovine serum albumin, pH 7.3) containing 2 mmol/L glucose, and then were incubated in 1 mL of Buffer A containing 2 mmol/L glucose at 37° C. for 45 minutes. After the incubation, the culture supernatant was changed to Buffer A (0.9 mL) containing a test compound at various concentrations and 2 mmol/L glucose, and the cells were further incubated at 37° C. for 15 minutes. The MIN6 cells were stimulated with glucose by the addition of Buffer A (0.1 mL) containing 127 mmol/L glucose to the culture (final glucose concentration: 14.5 mmol/L). After the stimulation, the cells were further incubated at 37° C. for 45 minutes, and then the culture supernatant was collected.
Separately, the effect of a compound on the insulin secretion in the presence of 5 mmol/L glucose was determined by measuring insulin amounts in cell culture supernatants collected as follows. MIN6 cells cultured on a 24-well plate were washed twice by using 1 mL of Buffer A containing 5 mmol/L glucose, and then the culture supernatant was changed to Buffer A (0.9 mL) containing a test compound at various concentrations and 5 mmol/L glucose. Then, the cells were incubated at 37° C. for 45 minutes (final glucose concentration: 5 mmol/L), and the culture supernatant was collected.
After the culture supernatant was diluted with a phosphate buffer containing 1% bovine serum albumin, 0.1% Tween 20, 0.12% disodium ethylenediaminetetraacetate (EDTA) and 0.1% sodium azide, antibody-reactive insulin secreted in the culture supernatant was quantified by enzyme immunoassay or radio immunoassay. The insulin level was indicated as the amount of human insulin (ng/mL). The results are indicated as averages (avg) for 3 to 4 samples with standard erroe values (se).

[2] = in the presence of 5 mmol/L of glucose, drug concentration 10 (mmol/L [sic]), None = 51.2
[3] = in the presence of 14.5 mmol/L of glucose, drug concentration 1.0 μmol/L, None = 148.4

melting point | SMILES | Insulin secretion amount (ng/ml) avg [1, 2] | Insulin secretion amount (ng/ml) avg [1, 3] | further results
274 to 276 °C | CCCN1C(=O)N2C[C@@H](Cc3ccccc3)N=C2c2[nH]c(CCC(=O)O)nc21 | – | – | –
204 to 205 °C | CCCN1C(=O)N2C[C@@H](Cc3ccccc3)N=C2c2[nH]c(C3CCN(C(=O)OC(C)(C)C)CC3)nc21.Cl | – | – | –
280 °C (dec.) | Cl.O=C(O)CN1C(=O)N2C[C@@H](Cc3ccccc3)N=C2c2[nH]c(C3CCCC3)nc21 | – | – | –
165 to 167 °C | Cl.O=C1N2C[C@@H](Cc3ccc(F)cc3)N=C2c2[nH]c(C3CCCC3)nc2N1CCO | – | – | –
187 to 188 °C | CCCN1C(=O)N2C[C@@H](Cc3ccccc3)N=C2c2[nH]c(C3(O)CCCC3)nc21 (as salt: salt) [Compound 40, (R)-8-Benzyl-7,8-dihydro-2-(1-hydroxycyclopentyl)-4-(n-propyl)-1H-imidazo[2,1-i]purin-5(4H)-one] | – | – | –
– | CC(C)[C@H]1CC[C@H](C(=O)N[C@H](Cc2ccccc2)C(=O)O)CC1 [AY4166, reference compound] | 170.8 ng/mL | – | secretion promoting action at a low glucose concentration (in words) [1]: marked secretion promoting action; Insulin secretion amount (ng/ml) avg ([1]; in the presence of 14.5 mmol/L of glucose, drug concentration 10 μmol/L, None = 148.4): 195.1 ng/mL
270 to 274 °C | CCCc1nc2c([nH]1)C1=NC(Cc3ccncc3)CN1C(=O)N2CCC (centres unmarked) [Compound 8, 7,8-Dihydro-8-(4-picolyl)-2,4-dipropyl-1H-imidazo[2,1-i]purin-5(4H)-one] | – | – | –
– | CCCN1C(=O)N2C[C@@H](Cc3ccncc3)N=C2c2[nH]c(C3CCCCC3)nc21 [Compound 9, (R)-2-Cyclohexyl-7,8-dihydro-8-(4-picolyl)-4-(n-propyl)-1H-imidazo[2,1-i]purin-5(4H)-one] | 74.0 ng/mL | 197.6 ng/mL | –
– | CCCN1C(=O)N2C[C@@H](Cc3ccncc3)N=C2c2[nH]c(C3CCC3)nc21 [Compound 10, (R)-2-Cyclobutyl-7,8-dihydro-8-(4-picolyl)-4-(n-propyl)-1H-imidazo[2,1-i]purin-5(4H)-one D-tartrate] | 74.9 ng/mL | 196.8 ng/mL | –
293 to 295 °C | CCCN1C(=O)N2CC(Cc3ccncc3)N=C2c2[nH]c(C(C)(C)C)nc21 (centres unmarked) [Compound 11, 2-(tert-Butyl)-7,8-dihydro-8-(4-picolyl)-4-(n-propyl)-1H-imidazo[2,1-i]purin-5(4H)-one] | – | – | –
– | O=C1N2CC(Cc3ccncc3)N=C2c2[nH]c(C3CCCC3)nc2N1CC1CC1 (centres unmarked) [Compound 14, 2-Cyclopentyl-4-cyclopropylmethyl-7,8-dihydro-8-(4-picolyl)-1H-imidazo[2,1-i]purin-5(4H)-one dihydrochloride] | 66.4 ng/mL | 177.9 ng/mL | –
– | CCCN1C(=O)N2CC(Cn3cccn3)N=C2c2[nH]c(C3CCCC3)nc21 (centres unmarked) [Compound 21, 2-Cyclopentyl-7,8-dihydro-4-(n-propyl)-8-(1-pyrazolylmethyl)-1H-imidazo[2,1-i]purin-5(4H)-one] | 74.8 ng/mL | 182.1 ng/mL | –
– | CCCN1C(=O)N2CC(Cn3cccc3)N=C2c2[nH]c(C3CCCC3)nc21 (centres unmarked) [Compound 24, 2-Cyclopentyl-7,8-dihydro-4-(n-propyl)-8-(1-pyrrolylmethyl)-1H-imidazo[2,1-i]purin-5(4H)-one] | 71.8 ng/mL | 200.0 ng/mL | –
– | CCCN1C(=O)N2C[C@@H](Cc3ccccc3)N=C2c2[nH]c(C3(O)CCCC3)nc21 [Compound 40, (R)-8-Benzyl-7,8-dihydro-2-(1-hydroxycyclopentyl)-4-(n-propyl)-1H-imidazo[2,1-i]purin-5(4H)-one] | 56.7 ng/mL | 191.2 ng/mL | –
– | CCCN1C(=O)N2C[C@@H](Cc3ccccc3)N=C2c2[nH]c(COCC)nc21.CCCN1C(=O)N2C[C@@H](Cc3ccccc3)N=C2c2[nH]c(COCC)nc21.O=C(O)/C=C/C(=O)O [Compound 45, (R)-8-Benzyl-2-ethoxymethyl-7,8-dihydro-4-(n-propyl)-1H-imidazo[2,1-i]purin-5(4H)-one 0.5 fumarate] | 69.9 ng/mL | 178.8 ng/mL | –
– | CCCN1C(=O)N2C[C@@H](Cc3ccccc3)N=C2c2[nH]c(C3CCCO3)nc21 (stereo partly drawn) [Compound 51, (R)-8-Benzyl-7,8-dihydro-4-(n-propyl)-2-(tetrahydrofuran-2-yl)-1H-imidazo[2,1-i]purin-5(4H)-one D-tartrate] | 79.2 ng/mL | 180.8 ng/mL | –
– | CCCN1C(=O)N2C[C@@H](Cc3ccccc3)N=C2c2[nH]c(COCc3ccccc3)nc21.CCCN1C(=O)N2C[C@@H](Cc3ccccc3)N=C2c2[nH]c(COCc3ccccc3)nc21.O=C(O)/C=C/C(=O)O [Compound 56, (R)-8-Benzyl-2-benzyloxymethyl-7,8-dihydro-4-(n-propyl)-1H-imidazo[2,1-i]purin-5(4H)-one 0.5 fumarate] | 56.2 ng/mL | 189.0 ng/mL | –
– | CCCN1C(=O)N2C[C@@H](Cc3ccccc3)N=C2c2[nH]c(CSCC)nc21.CCCN1C(=O)N2C[C@@H](Cc3ccccc3)N=C2c2[nH]c(CSCC)nc21.O=C(O)/C=C/C(=O)O [Compound 64, (R)-8-Benzyl-2-ethylthiomethyl-7,8-dihydro-4-(n-propyl)-1H-imidazo[2,1-i]purin-5(4H)-one 0.5 fumarate] | 61.2 ng/mL | 204.9 ng/mL | –
– | CSCCCOC1=Nc2nc(C3CCCC3)[nH]c2C2=N[C@H](Cc3ccccc3)CN12 [Compound 71, (R)-8-Benzyl-2-cyclopentyl-7,8-dihydro-5-(3-methylthiopropyloxy)-1H-imidazo[2,1-i]purine] | 107.7 ng/mL | 211.0 ng/mL | –
– | CC(C)(O)CN1C(=O)N2C[C@@H](Cc3ccccc3)N=C2c2[nH]c(C3CCCC3)nc21 [Compound 81, (R)-8-Benzyl-2-cyclopentyl-7,8-dihydro-4-(2-hydroxy-2-methylpropyl)-1H-imidazo[2,1-i]purin-5(4H)-one hydrochloride] | 83.1 ng/mL | 195.4 ng/mL | –
– | CC(C)(O)CCN1C(=O)N2C[C@@H](Cc3ccccc3)N=C2c2[nH]c(C3CCCC3)nc21 [Compound 85, (R)-8-Benzyl-2-cyclopentyl-7,8-dihydro-4-(3-hydroxy-3-methylbutyl)-1H-imidazo[2,1-i]purin-5(4H)-one hydrochloride] | 53.6 ng/mL | 197.1 ng/mL | –
– | COc1ccc(Cl)cc1C(=O)NCCc1ccc(S(=O)(=O)NC(=O)NC2CCCCC2)cc1 [Glibenclamide, reference compound] | – | – | secretion promoting action at a low glucose concentration (in words) [1]: marked secretion promoting action; Insulin secretion amount (ng/ml) avg ([1]; in the presence of 5 mmol/L of glucose, drug concentration 0.1 (mmol/L [sic]), None = 51.2): 156.8 ng/mL; Insulin secretion amount (ng/ml) avg ([1]; in the presence of 14.5 mmol/L of glucose, drug concentration 0.1 μmol/L, None = 148.4): 177.8 ng/mL

SMILES | melting point | Insulin secretion amount (ng/ml) avg [1, 2] | Insulin secretion amount (ng/ml) avg [1, 3] | further results
CCCN1C(=O)N2CC(Cc3ccccc3)CN=C2c2[nH]c(COCC)nc21.O=C(O)/C=C/C(=O)O (centres unmarked) | 152 to 157 °C | – | – | –
O=C1N2CC(Cc3ccncc3)N=C2c2[nH]c(C3CCCC3)nc2N1CC1CC1 (centres unmarked) (as salt: hydrochloride) [Compound 14, 2-Cyclopentyl-4-cyclopropylmethyl-7,8-dihydro-8-(4-picolyl)-1H-imidazo[2,1-i]purin-5(4H)-one dihydrochloride] | 240 to 241 °C | – | – | –
